Data published in patent publication US11345673B2, “1-phenylpropanone compounds and use thereof” (UNIVERSITA' DEGLI STUDI DI PADOVA, priority 2016, dated 2022).

Experiments:
Assay type in all cases: cell-based
[1] = tested on: hepatocarcinoma (HepG2) cells; experiment: Proapoptotic effect by flow cytofluorometry, HepG2 cells; details: Homo sapiens, 24 hours incubation, three experiments in triplicate, read-out: IC50 ± S.D. (concentration required to cause 50% apoptosis), HepG2
Source text: (§1) Flow cytofluorometry was used to evaluate the ability of some compounds of the invention to induce cell death, with particular reference to apoptosis. This latter phenomenon is characterized by morphological modification of the plasmatic membrane as a result of the translocation of the phospholipid phosphatidylserine (PS) in the plasmatic membrane from the cytoplasmic side to the outer surface of the cell. […] Annexin is detected because it is conjugated to a specific fluorochrome, thus allowing to distinguish apoptosis from necrotic phenomena, which are instead measured by the fluorescent dye propidium iodide, which penetrates freely in the cell having a damaged plasmatic membrane.
(§2) Both primary lymphocytic tumor cells taken from patients with chronic lymphatic leukemia (LLC) and humanized cell lines of neuroblastoma (SK-N-BE), hepatocarcinoma (HepG2 and HUH7.5) and breast cancer (MDA-MB-231) were used.
(§3) HepG2 (2×10^5 cells per well), HUH7.5 and MDA-MB-231 (1.5×10^5 cells per well) cells were seeded on a 6-well plate in Dulbecco's Modified Eagle Medium (DMEM), 10% FBS and cultured at 37° C. in a 5% CO2 atmosphere. After 24 hours, the medium was removed and replaced by DMEM containing the test compounds, previously dissolved in 100% dimethylsulfoxide, and diluted such that the final concentration of the same in cell incubation solutions was 0.5% (v/v). After 30 minutes incubation, 10% FBS was added, and the cells were incubated for 24 hours, then detached with trypsin, and analyzed by cytofluorimeter. LLC cells (1×10^6 cells per well) were seeded and cultured on 12-well plates in RPMI-1640 medium, 10% FBS, at 37° C. in a humified atmosphere containing 5% CO2. To this medium, test compounds were added, and incubation was carried out for 24 hours, after which time the cells were analyzed by cytofluorimeter.
(§4) The results obtained by cytofluorometry from three separate experiments executed in triplicate were tabulated, estimating the concentration required to cause 50% apoptosis (IC50), and standard deviation.

[2] = tested on: breast cancer (MDA-MB-231) cells; experiment: Proapoptotic effect by flow cytofluorometry, MDA-MB-231 cells; details: Homo sapiens, 24 hours incubation, three experiments in triplicate, read-out: IC50 ± S.D. (concentration required to cause 50% apoptosis), MDA-MB-231
Source text: as §1, §2, §3, §4

[3] = tested on: primary lymphocytic tumor cells taken from patients with chronic lymphatic leukemia (LLC); experiment: Proapoptotic effect by annexin V/propidium iodide flow cytofluorometry, LLC cells; details: Homo sapiens, 24 hours incubation, three experiments in triplicate, read-out: IC50 ± S.D. (concentration required to cause 50% apoptosis), LLC
Source text: as §1, §2, §3
Leukemic lymphocytes were isolated, following heparinized venous withdrawal from peripheral blood of LLC patients, diluted with saline in a 1:3 ratio, layered on a Ficoll/Hypaque (F/H) density gradient, centrifuged at 900 rpm for 20 minutes, at 20° C. without brakes. Mononuclear cells and platelets, concentrating on top of the F/H gradient, were separated after 2 further washings, with centrifugation at 400 rpm at room temperature. The mononuclear cells thus obtained were washed 3 times with PBS, centrifuged for 10 minutes at 400 rpm, at 20° C. with brakes, and resuspended in RPMI 1640.
In most LLC cases, the percentage of leukemic B cells was higher than 85% with respect to all mononuclear cells from peripheral blood.
as §4

[4] = tested on: neuroblastoma (SK-N-BE) cells; experiment: Proapoptotic effect by flow cytofluorometry, SK-N-BE cells; details: Homo sapiens, three experiments in triplicate, read-out: IC50 ± S.D. (concentration required to cause 50% apoptosis), SK-N-BE
Source text: as §1
Both primary lymphocytic tumor cells taken from patients with chronic lymphatic leukemia (LLC) and humanized cell lines of neuroblastoma (SK-N-BE), hepatocarcinoma (HepG2 and HUH7.5) and breast cancer (MDA-MB-231) were used. […]
as §4

[5] = tested on: hepatocarcinoma (HUH7.5) cells; experiment: Proapoptotic effect by flow cytofluorometry, HUH7.5 cells; details: Homo sapiens, 24 hours incubation, three experiments in triplicate, read-out: IC50 ± S.D. (concentration required to cause 50% apoptosis), HUH7.5
Source text: as §1, §2, §3, §4

| SMILES | IC50 [1] [µM] | IC50 [2] [µM] | IC50 [3] [µM] | IC50 [4] [µM] | IC50 [5] [µM] |
| --- | --- | --- | --- | --- | --- |
| CCCCCCSc1ccc(C(=O)CCN2CCCCC2)cc1 [Compound 10, 1-(4-(hexylthio)phenyl)-3-(piperidin-1-yl)propan-1-one] | 1.7 ± 0.05 | 1.8 ± 0.09 | 1.87 ± 0.07 | 1.67 ± 0.05 | 1.8 ± 0.11 |
| CCCCCCC[Se]c1ccc(C(=O)CCN2CCOCC2)cc1 [Compound 17, 1-(4-(heptylselenyl)phenyl)-3-morpholinopropan-1-one] | 0.6 ± 0.07 | 0.55 ± 0.07 | 0.55 ± 0.04 | 0.5 ± 0.06 | 0.5 ± 0.1 |
| CCCCCC[Se]c1ccc(C(=O)CCN2CCCCC2)cc1 [Compound 19, 1-(4-(hexylselenyl)phenyl)-3-(piperidin-1-yl)propan-1-one] | 12.48 ± 0.12 | 13.01 ± 0.12 | 10.1 ± 0.08 | 11.65 ± 0.06 | 11.98 ± 0.11 |
| CCCCCCOc1ccc(C(=O)CCN2CCOCC2)cc1 [Compound 1, 1-(4-(hexyloxy)phenyl)-3-morpholinopropan-1-one] | 1.67 ± 0.15 | 1.61 ± 0.08 | 1.61 ± 0.1 | 1.85 ± 0.09 | 1.58 ± 0.07 |
| CCCCCSc1ccc(C(=O)CCN2CCCCC2)cc1 [Compound 9, 1-(4-(pentylthio)phenyl)-3-(piperidin-1-yl)propan-1-one] | 1.66 ± 0.1 | 1.8 ± 0.06 | 1.75 ± 0.04 | 1.85 ± 0.14 | 1.73 ± 0.09 |
| CCCCC[Se]c1ccc(C(=O)CCN2CCN(C)CC2)cc1 [Compound 21, 3-(4-methylpiperazin-1-yl)-1-(4-(pentylselenyl)phenyl)propan-1-one] | 15.57 ± 0.03 | 14.23 ± 0.14 | 14.16 ± 0.09 | 13.88 ± 0.13 | 13.6 ± 0.09 |
| CCCCCCC[Se]c1ccc(C(=O)CCN2CCN(C)CC2)cc1 [Compound 23, 1-(4-(heptylselenyl)phenyl)-3-(4-methylpiperazin-1-yl)propan-1-one] | 1.7 ± 0.05 | 1.7 ± 0.09 | 1.77 ± 0.05 | 1.75 ± 0.09 | 1.69 ± 0.08 |
| CCCCCCCc1ccc(C(=O)CCN2CCN(C)CC2)cc1 [Compound 26, 1-(4-heptylphenyl)-3-(4-methylpiperazin-1-yl)propan-1-one] | 0.8 ± 0.07 | 0.9 ± 0.05 | 0.85 ± 0.06 | 0.75 ± 0.13 | 0.95 ± 0.06 |
| CCCCCCCc1ccc(C(=O)CCN2CCOCC2)cc1 [Compound 24, 1-(4-heptylphenyl)-3-morpholinopropan-1-one] | 0.5 ± 0.08 | 0.55 ± 0.08 | 0.5 ± 0.15 | 0.5 ± 0.17 | 0.5 ± 0.065 |
| CCCCCSc1ccc(C(=O)CCN2CCN(C)CC2)cc1 [Compound 12, 3-(4-methylpiperazin-1-yl)-1-(4-(pentylthio)phenyl)propan-1-one] | 12.95 ± 0.05 | 11.85 ± 0.07 | 12.2 ± 0.11 | 13.17 ± 0.12 | 14.54 ± 0.12 |
| CCCCCC[Se]c1ccc(C(=O)CCN2CCOCC2)cc1 [Compound 16, 1-(4-(hexylselenyl)phenyl)-3-morpholinopropan-1-one] | 2.62 ± 0.08 | 2.58 ± 0.09 | 2.53 ± 0.09 | 2.47 ± 0.06 | 2.6 ± 0.1 |
| CCCCCCOc1ccc(C(=O)CCN2CCCCC2)cc1 [Compound 3, 1-(4-(hexyloxy)phenyl)-3-(piperidin-1-yl)propan-1-one] | 3.07 ± 0.09 | 2.6 ± 0.1 | 2.53 ± 0.15 | 3 ± 0.17 | 2.75 ± 0.09 |
| CCCCCCSc1ccc(C(=O)CCN2CCOCC2)cc1 [Compound 7, 1-(4-(hexylthio)phenyl)-3-morpholinopropan-1-one] | 0.49 ± 0.11 | 0.5 ± 0.2 | 0.5 ± 0.2 | 0.53 ± 0.09 | 0.56 ± 0.2 |
| CCCCC[Se]c1ccc(C(=O)CCN2CCOCC2)cc1 [Compound 15, 3-morpholino-1-(4-(pentylselenyl)phenyl)propan-1-one] | 11.11 ± 0.07 | 13.9 ± 0.14 | 14.2 ± 0.17 | 15.71 ± 0.13 | 12.2 ± 0.08 |
| CCCCCSc1ccc(C(=O)CCN2CCOCC2)cc1 [Compound 6, 3-morpholino-1-(4-(pentylthio)phenyl)propan-1-one] | 8 ± 0.1 | 8 ± 0.07 | 8.5 ± 0.08 | 8.2 ± 0.1 | 8.25 ± 0.12 |
| CCCCCC[Se]c1ccc(C(=O)CCN2CCN(C)CC2)cc1 [Compound 22, 1-(4-(hexylselenyl)phenyl)-3-(4-methylpiperazin-1-yl)propan-1-one] | 8.1 ± 0.1 | 8.1 ± 0.07 | 8.15 ± 0.07 | 8.2 ± 0.07 | 8 ± 0.06 |
| CCCCCCCSc1ccc(C(=O)CCN2CCOCC2)cc1 [Compound 8, 1-(4-(heptylthio)phenyl)-3-morpholinopropan-1-one] | 0.57 ± 0.08 | 0.66 ± 0.12 | 0.55 ± 0.09 | 0.6 ± 0.05 | 0.63 ± 0.08 |
| CCCCCCSc1ccc(C(=O)CCN2CCN(C)CC2)cc1 [Compound 13, 1-(4-(hexylthio)phenyl)-3-(4-methylpiperazin-1-yl)propan-1-one] | 0.59 ± 0.06 | 0.65 ± 0.01 | 0.65 ± 0.01 | 0.67 ± 0.09 | 0.6 ± 0.12 |
| CCCCCCCOc1ccc(C(=O)CCN2CCCCC2)cc1 [Compound 4, 1-(4-(heptyloxy)phenyl)-3-(piperidin-1-yl)propan-1-one] | 3 ± 0.15 | 3.01 ± 0.15 | 3.03 ± 0.07 | 2.93 ± 0.08 | 2.78 ± 0.13 |
| CCCCCCCSc1ccc(C(=O)CCN2CCN(C)CC2)cc1 [Compound 14, 1-(4-(heptylthio)phenyl)-3-(4-methylpiperazin-1-yl)propan-1-one] | 0.5 ± 0.09 | 0.47 ± 0.1 | 0.44 ± 0.06 | 0.45 ± 0.07 | 0.52 ± 0.1 |
| CCCCC[Se]c1ccc(C(=O)CCN2CCCCC2)cc1 [Compound 18, 1-(4-(pentylselenyl)phenyl)-3-(piperidin-1-yl)propan-1-one] | 7.5 ± 0.15 | 7.9 ± 0.1 | 8.5 ± 0.15 | 8 ± 0.1 | 8.3 ± 0.08 |
| CCCCCCCOc1ccc(C(=O)CCN2CCN(C)CC2)cc1 [Compound 5, 1-(4-(heptyloxy)phenyl)-3-(4-methylpiperazin-1-yl)propan-1-one] | 1.6 ± 0.05 | 1.48 ± 0.09 | 1.45 ± 0.06 | 1.55 ± 0.1 | 1.61 ± 0.08 |
| CCCCCCCSc1ccc(C(=O)CCN2CCCCC2)cc1 [Compound 11, 1-(4-(heptylthio)phenyl)-3-(piperidin-1-yl)propan-1-one] | 0.59 ± 0.01 | 0.56 ± 0.06 | 0.5 ± 0.04 | 0.54 ± 0.09 | 0.49 ± 0.07 |
| CCCCCCCc1ccc(C(=O)CCN2CCCCC2)cc1 [Compound 25, 1-(4-heptylphenyl)-3-(piperidin-1-yl)propan-1-one] | 1.55 ± 0.09 | 1.65 ± 0.75 | 1.5 ± 0.08 | 1.6 ± 0.1 | 1.5 ± 0.1 |
| CCCCCCCOc1ccc(C(=O)CCN2CCOCC2)cc1 [Compound 2, 1-(4-(heptyloxy)phenyl)-3-morpholinopropan-1-one] | 1.55 ± 0.13 | 1.61 ± 0.07 | 1.62 ± 0.15 | 1.64 ± 0.09 | 1.58 ± 0.1 |
| CCCCCCC[Se]c1ccc(C(=O)CCN2CCCCC2)cc1 [Compound 20, 1-(4-(heptylselenyl)phenyl)-3-(piperidin-1-yl)propan-1-one] | 1.74 ± 0.05 | 1.75 ± 0.1 | 1.7 ± 0.05 | 1.68 ± 0.13 | 1.73 ± 0.09 |
